Assay results published in patent publication US10087465B2, “Trans-acting elements for intracellular delivery of nucleic acid sequences” (The United States of America, as Represented by the …, priority 2014, dated 2018).
“Also recorded” adds a separate entry of the source. {NH2} = C-terminal amide of the PNA; {F1} = fluorescein label

Assays:
Format in all cases: cell-based
[1] = test system: HeLa pLuc705 cells; assay: Luciferase splice correction assay; details: for luciferase activity (splice correction) upon PS-dT8[3+] (dTtaPS)-assisted delivery of PNA oligomers: FIG. 12, 13, 15; for luciferase activity / internalization upon PS-dA8[3+] (dAtaPS)-mediated delivery of PNA oligomers: PS-dA8[3+] 2.0 μM, compared with PS-dT8[3+]:10 complex, FIG. 16
Protocol: The efficiency of PS-dT8[3+] in the cellular uptake of polyA-tailed PNA oligomers was assessed through the luciferase splice correction assay in which the mutated intron 2 of the human β-globin gene has been inserted within the coding sequence of a luciferase reporter gene (pLuc705). The activation of a cryptic splice site in this intron leads to a defective luciferase enzyme. In the presence of a PNA oligomer complementary to the aberrant splice site, correct splicing is restored and results in an active luciferase. A concentration-dependence of splice correction activity by PS-dT8[3+]-mediated internalization of the PNA oligomer 10 in HeLa pLuc705 cells is shown in FIG. 12.
(§1) Complex formation between PNA or PMO oligomers and dTtaPS or dAtaPS: Appropriate amounts of PNA or PMO oligomers were diluted in serum-free OptiMEM™ (20 μl). dTtaPS or dAtaPS was added to the oligomer solution to achieve a final concentration that is twice that of the oligomer. After 30 min incubation at 37° C., the PNA or PMO oligomer: dTtaPS or dAtaPS complexes were stored at 4° C. for 15 minutes or until used. Stock solutions (2×) of the complexes were made by adding OptiMEM™ to appropriate volumes.
Luciferase assay protocol: HeLa pLuc 705 cells were seeded in a 96-well plate (2×10^4 cells/well) and allowed to grow at 37° C. for 18 h in 10% FBS-DMEM. The culture medium of each well was then replaced with either fresh serum-free or 20% serum-containing OptiMEM™ (50 μl) for experiments intended to be performed in serum-free or in 10% serum-containing media. A 2× solution of PNA or PMO oligomer:dTtaPS or dAtaPS complexes (50 μl) was added to the cells in order to achieve pre-determined complex concentrations, as indicated in the Figures. After a 4-hour incubation at 37° C., 20% FBS in OptiMEM™ (100 μl was added to serum-free experiments and cells were incubated for an additional 18 h at 37° C. The media was then removed by suction and the cells were mixed with a cell lysis reagent (50 μl) and agitated at ambient temperature for 10 minutes. The cell lysate (30 μl) was placed in a white 96-well plate and Bright-Glo™ reagent (20 μl) was added. Luciferase activity was measured using a microplate reader. For each well, luminescence was integrated over a period of 1 sec and recorded as relative light units (RLU). Luminescence measurements were normalized to the amount of protein present in the test sample.
Appropriate amounts of PNA/PMO oligomers were diluted in OptiMEM™ (20 μL) to achieve the concentration of 1 μM or as indicated in the Figures. PS-dT8[3+] or PS-dAs[3+] was added to the above oligomer solutions. After a 30 min incubation at 37° C., the PNA/PMO oligomer:PS-dT8[3+] or PS-dA8[3+] complexes were removed and kept at 4° C. for 15 minutes or until used. Stock solutions of the complexes were made by adding OptiMEM™ to appropriate volumes.
Luciferase Assay: Prior to performing experiments, HeLa pLuc 705 cells were seeded in a 96-well plate (2×10^4 cells/well) and allowed to grow at 37° C. for 18 h in 10% FBS DMEM. The culture medium of each well was then replaced with either fresh 50 μL serum free or 20% serum-containing OptiMEM™ for experiments intended to be performed in serum free or in 10% serum-containing media. A 2× solution of the PNA/PMO oligomer:PS-dT8[3+] or PS-dAs[3+] complexes (50 μL) was added to the cells in order to achieve a pre-determined concentration as indicated in the figures. After a 4-hour incubation at 37° C., 20% FBS in OptiMEM (100 μL) was added to serum free experiments and cells were incubated for an additional 18 h at 37° C. The media was then removed by suction and the cells were mixed with a cell lysis reagent (50 μL) and agitated at ambient temperature over a period of 10 minutes. The cell lysate (30 μL) was placed in white 96-well plate and Bright-Glow™ reagent (20 μL) was added. Luciferase activity was measured using a microplate reader. […]

[2] = test system: HeLa pLuc 705 cells; assay: Endocytic pathway assays; details: dTtaPS-mediated uptake of PNA oligomer 10, chlorpromazine 30 μM, nystatin 50 μM, EIPA 1 mM
Protocol: Endocytic pathway assays: HeLa pLuc 705 cells were seeded in a 96-well plate and grown in 10% FBS-DMEM as described above. The cell culture was then pre-incubated for 30 min at 37° C. in the presence of chlorpromazine, nystatin or 5-(N-ethyl-N-isopropyl)amiloride (EIPA), the final concentration of which was 30 μM, 50 μM or 1 mM, respectively. A 2× solution of PNA oligomer 10:dTtaPS complex was added to the cells to provide an oligomer and dTtaPS final concentration of 1.0 μM and 2.0 μM, respectively. The cells were then incubated for an additional 30 min at 37° C., whereupon luciferase activity was measured as described above in the Luciferase assay protocol. Luminescence measurements were normalized to the amounts of protein present in the test samples and reported as percent luminescence remaining relative to that of the experiment performed in the absence of endocytic pathway inhibitors.

[3] = test system: HEK 293, HeLa, HeLa pLuc705, MCF7 and SK—N—SH live cells; assay: Flow cytometry (FACS) analysis of cellular uptake of fluorescently-labeled PNA or PMO oligomers in live cells; details: for PS-dT8[3+] (dTtaPS)-mediated cellular internalization of fluoresceinated PNA oligomers: in the presence of PS-dT8[3+], oligomer 1 μM, all cell lines under study, FIG. 11; for PS-dT8[3+] (dTtaPS)-mediated delivery of fluoresceinated PMO oligomers: PMO oligomer 1 μM, PS-dT8[3+] 2 μM, all cell lines, FIG. 17
Protocol: as §1
Flow cytometry analysis of cellular uptake in live cells: The internalization of fluorescently-labeled PNA or PMO sequences (Table 1) in HEK 293, HeLa, MCF7 and SK—N—SH cells was assessed by flow cytometry. Cells were seeded in a 96-well plate (10^4 cells/well) and allowed to grow at 37° C. for 24 h in 10% FBS-MEM. The culture medium of each well was then replaced with fresh medium (100 μl) containing any of the fluorescently-labeled PNA or PMO sequences, the final concentration of which was 1 μM. After an incubation of 18 h at 37° C., the medium was removed from each well by suction and 0.25% Trypsin (50 μl) was added. Upon complete cell detachment, a solution (100 μl) of ice-cold 2% FBS in phosphate-buffered saline (PBS, pH 7.4) was added to each well. The cells were collected into tubes, to which was added 0.4% Trypan blue (50 μl) and 200 µM monensin (20 μl), and analyzed by fluorescence-activated cell sorting (FACS) using a BD FACScan™ flow cytometer. A total of 5000 events were counted and the results were reported as a percentage of the cells that have internalized the fluorescently-labeled oligomers.

**Q.** Which “luciferase activity (splice correction) upon PS-dT8[3+] (dTtaPS)-assisted delivery of PNA oligomers” value ([1]; PS-dT8[3+] 2 μM) does the source give for “PNA oligomer 12: commercial PNA, H-CCTCTTACCTCAGTTACA-NH2, SEQ ID NO. 6 (all peptide nucleic acid (PNA); PNA with N-terminal H and C-terminal amide, further chemistry not fully specified)” here?
**A.** did not restore luciferase activity

**Q.** C[C@@H]1[C@H](O)[C@@H](C)/C=C/C=C/CC/C=C/C=C/C=C/C=C/C(O[C@H]2O[C@H](C)[C@@H](O)[C@H](N)[C@@H]2O)CC2O[C@](O)(CC(O)C(O)CCC(O)CC(O)CC(O)CC(=O)O[C@H]1C)CC(O)C2C(=O)O (stereo partly shown) [Nystatin, nystatin] was tested. Which “inhibition of luciferase production by endocytic pathway inhibitor” value [2] did it give?
**A.** did not inhibit

**Q.** Which “PS-dT8[3+] (dTtaPS)-mediated cellular internalization of fluoresceinated PNA oligomers” value [3] does the source give for “PNA oligomer 9: commercial PNA, F1-CCTCTTACCTCAGTTACA-NH2, SEQ ID NO. 3 (all peptide nucleic acid (PNA), 5' {F1}; PNA with C-terminal amide, further chemistry not fully specified)” here?
**A.** not significantly internalized

**Q.** “PMO oligomer 24: commercial PMO, CCTCTTACCTCAGTTACA-AATAAA, SEQ ID NO. 18 (CCTCTTACCTCAGTTACAAATAAA; all phosphorodiamidate morpholino (PMO))” was tested. Which “luciferase activity upon PS-dT8[3+] (dTtaPS)-assisted internalization of PMO oligomers” value ([1]; PMO oligomer 1 μM, PS-dT8[3+] 2 μM, relative to PMO oligomer 21, FIG. 18, listed as 24) did it give?
**A.** did not significantly decrease; also recorded: did not significantly affect

**Q.** Which “PS-dT8[3+] (dTtaPS)-mediated cellular internalization of fluoresceinated PNA oligomers” value [3] does the source give for “PNA oligomer 8: commercial PNA, F1-GTGGCCGTTTACGTCGCC-AAAAAA-NH2, SEQ ID NO. 2 (GTGGCCGTTTACGTCGCCAAAAAA; PNA, F1 label, C-amide, chemistry not fully specified)” here?
**A.** efficiently internalized

**Q.** With “PMO oligomer 20: commercial PMO, CCTCTTACCTCAGTTACA-F1, SEQ ID NO. 14 (all phosphorodiamidate morpholino (PMO), 3' {F1})” as the compound, how does the “PS-dT8[3+] (dTtaPS)-mediated delivery of fluoresceinated PMO oligomers” value [3] read?
**A.** reduced to that of the medium

**Q.** “PNA oligomer 11: commercial PNA, negative control, H-GTGGCCGTTTACGTCGCC-AAAAAA-NH2, SEQ ID NO. 5 (GTGGCCGTTTACGTCGCCAAAAAA; all peptide nucleic acid (PNA); PNA with N-terminal H and C-terminal amide, further chemistry not fully specified)” was tested. Which “luciferase activity (splice correction) upon PS-dT8[3+] (dTtaPS)-assisted delivery of PNA oligomers” value ([1]; PS-dT8[3+] 2 μM, listed as 11) did it give?
**A.** failed, as expected for a negative control, to restore luciferase activity

**Q.** With “PNA oligomer 16: commercial PNA, H-CCTCTTACCTCAGTTACA-CCCCCC-NH2, SEQ ID NO. 10 (CCTCTTACCTCAGTTACACCCCCC; all peptide nucleic acid (PNA), 3' {NH2}; further chemistry not fully specified)” as the compound, how does the “luciferase activity / internalization upon PS-dA8[3+] (dAtaPS)-mediated delivery of PNA oligomers” value ([1]; listed as 16) read?
**A.** failed to recognize and internalize

**Q.** What about the “luciferase activity (splice correction) upon PS-dT8[3+] (dTtaPS)-assisted delivery of PNA oligomers” value ([1]; PS-dT8[3+] 2 μM, listed as 16) of the same compound?
**A.** did not result in significant production of luciferase activity; also recorded: did not lead to the production of luciferase activity

**Q.** How did the “PS-dT8[3+] (dTtaPS)-mediated delivery of fluoresceinated PMO oligomers” value ([3]; listed as 19) turn out when “PMO oligomer 19: commercial PMO, GTGGCCGTTTACGTCGCC-AAAAAA-F1, SEQ ID NO. 13 (GTGGCCGTTTACGTCGCCAAAAAA; PMO, F1 label, chemistry not fully specified)” was run?
**A.** confirmed the dTtaPS-assisted delivery

**Q.** How did the “inhibition of luciferase production by endocytic pathway inhibitor” value [2] turn out when CCN(c1nc(N)c(C(=O)N=C(N)N)nc1Cl)C(C)C [EIPA, 5-(N-ethyl-N-isopropyl)amiloride] was run?
**A.** ~95%

**Q.** Which “luciferase activity / internalization upon PS-dA8[3+] (dAtaPS)-mediated delivery of PNA oligomers” value ([1]; listed as 15) does the source give for “PNA oligomer 15: commercial PNA, H-CCTCTTACCTCAGTTACA-TTTTTT-NH2, SEQ ID NO. 9 (CCTCTTACCTCAGTTACATTTTTT; all peptide nucleic acid (PNA); PNA with N-terminal H and C-terminal amide, further chemistry not fully specified)” here?
**A.** about half the level of luciferase activity

**Q.** What about the “luciferase activity (splice correction) upon PS-dT8[3+] (dTtaPS)-assisted delivery of PNA oligomers” value ([1]; PS-dT8[3+] 2 μM, listed as 15) of the same compound?
**A.** did not result in significant production of luciferase activity; also recorded: did not lead to the production of luciferase activity

**Q.** How did the inhibition at 30 µM ([2]; Homo sapiens, HeLa, read-out: inhibition of luciferase production by endocytic pathway inhibitor) turn out when CN(C)CCCN1c2ccccc2Sc2ccc(Cl)cc21 [chlorpromazine] was run?
**A.** ~40%

**Q.** What does the source list for “PNA oligomer 17: commercial PNA, H-AAAAAA-CCTCTTACCTCAGTTACA-NH2, SEQ ID NO. 11 (AAAAAACCTCTTACCTCAGTTACA; all peptide nucleic acid (PNA); PNA with N-terminal H and C-terminal amide, further chemistry not fully specified)”?
**A.** luciferase activity / internalization upon PS-dA8[3+] (dAtaPS)-mediated delivery of PNA oligomers ([1]; listed as 17): failed to recognize and internalize; luciferase activity (splice correction) upon PS-dT8[3+] (dTtaPS)-assisted delivery of PNA oligomers ([1]; PS-dT8[3+] 2 μM): did not significantly affect
